Experimental data: patent US20110230428A1, “CERTAIN KYNURENINE-3-MONOOXYGENASE INHIBITORS, PHARMACEUTICAL COMPOSITIONS, AND METHODS OF USE THEREOF” (priority 2008, published 2011)
Structures can show the parent of a compound that is named as a salt.

biological target: T1, KMO mouse enzyme (Mus musculus, UniProt Q91WN4); assay: KMO mouse enzyme assay: L-Kynurenine hydroxylation to 3OH-KYN by LC/MS; assay type: biochemical; conditions: compound at 10 μM; KMO from mouse liver mitochondria; read-out: INH.Mouse @ 10 μM
T1 construct: KMO enzyme prepared at Evotec from mouse liver (4-6 weeks old) via mitochondria isolation; from tissue; host or cells: mouse liver (4-6 weeks old), isolated mitochondria
T1 sequence (Q91WN4 whole entry): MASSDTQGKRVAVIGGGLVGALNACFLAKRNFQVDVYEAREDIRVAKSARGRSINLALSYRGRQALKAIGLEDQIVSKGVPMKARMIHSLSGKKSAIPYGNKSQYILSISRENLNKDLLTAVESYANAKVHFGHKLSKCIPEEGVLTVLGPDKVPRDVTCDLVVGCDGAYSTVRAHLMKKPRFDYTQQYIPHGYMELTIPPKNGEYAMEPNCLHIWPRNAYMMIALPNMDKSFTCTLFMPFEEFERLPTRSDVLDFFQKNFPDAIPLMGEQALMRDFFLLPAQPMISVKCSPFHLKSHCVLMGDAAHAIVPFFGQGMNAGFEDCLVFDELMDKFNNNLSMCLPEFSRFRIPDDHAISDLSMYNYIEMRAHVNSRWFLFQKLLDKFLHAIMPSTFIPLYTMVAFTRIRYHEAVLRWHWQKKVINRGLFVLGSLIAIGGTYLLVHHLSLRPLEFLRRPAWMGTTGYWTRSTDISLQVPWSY
Procedure: A method of monitoring L-Kynurenine (KYN) hydroxylation to form 3-Hydroxy-Kynurenine (3OH-KYN) by LC/MS is described. Product is quantified by multiple reaction monitoring (MRM method).
• Compound: Stock concentrations: 10 mM in 100% DMSO • Enzyme: KMO enzyme prepared at Evotec from mouse liver (4-6 weeks old) via mitochondria isolation as described in the literature • Substrate: L-Kynurenine (Sigma: Cat# K3750, stock concentration: 10 mM in 100 mM potassium phosphate buffer, pH 7.4)
• Buffer: 100 mM potassium phosphate, pH 7.4, 200 μM NADPH, 0.4 U/ml G6P-DH (Glucose 6-phosphate Dehydrogenase), 3 mM G6P (D-Glucose 6-phosphate) • Assay Volume: 40 μl • Plate Format: 384 well plate, transparent (Matrix) • Read-Out: product (3OH-KYN) quantification using product specific MRM • Reader: LC/MS/MS
• prepare serial dilution (factor 3) of compound in 100% DMSO (top concentration=10 mM, 100% DMSO) • [8 points: 10 mM; 3.33 mM; 1.11 mM; 0.37 mM; 0.12 mM; 0.04 mM; 0.0137 mM; 0.0045 mM, 0.0015 mM] • prepare […] solution of each compound concentration (top concentration 300 μM, 3% DMSO) in assay buffer • [concentrations: 300 μM; 100 μM; 33.3 μM; 11.1 μM; 3.70 μM; 1.23 μM; 0.41 μM; 0.137 μM] • prepare substrate (10 mM) at concentration of 1 mM in assay buffer • assay mix: 4 μl compound/well of each concentration+24 μl assaybuffer/well+8 μl KMO mouse enzyme+4 μl 1 mM substrate (final concentration=100 μM) • [final compound top concentration: 30 μM; 0.3% DMSO] • [final compound bottom concentration: 0.0137 μM; 0.3% DMSO] • positive control: 4 μl 50 μM FCE28833 in assay buffer, 0.5% DMSO [final assay concentration=5 μM]+24 μl assaybuffer/well+8 μl KMO mouse enzyme+4 μl 1 mM substrate [final concentration=100 μM] • negative control: 28 μl assay buffer/well+8 μl KMO mouse enzyme+4 μl 1 mM substrate [final concentration=100 μM] • incubate 40 min at RT • add 40 μl/well 10% trichloro acetic acid in water to stop the assay and precipitate protein • centrifuge plate for 3 min at 4000 rpm • product detection by LC/MS (injection of 20 μl/well, 2 fold overfill of the 10 μl sample loop) Data analysis: IC50's are calculated using automated fitting algorithm (A+Analysis).
Using procedures similar to those described herein, the following compounds were assayed for activity.

SMILES | inhibition at 10 µM
CON=C(CCC(=O)OC[C@H](O)[C@H]1OC(=O)C(O)=C1O)c1ccc(Cl)c(Cl)c1 [4-(3,4-Dichloro-phenyl)-4-methoxyimino-butyric acid (S)-2-((R)-3,4-dihydroxy-5-oxo-2,5-dihydro-furan-2-yl)-2-hydroxy-ethyl ester] | 102%
CON=C(CCc1noc(C)n1)c1ccc(Cl)c(Cl)c1 (single isomer, unassigned) [1-(3,4-Dichloro-phenyl)-3-(5-methyl-[1,2,4]oxadiazol-3-yl)-propan-1-one O-methyl-oxime] | 87.2%
CON=C(CCC(=O)NCCO)c1ccc(Cl)c(Cl)c1 [4-(3,4-Dichloro-phenyl)-N-(2-hydroxy-ethyl)-4-methoxyimino-butyramide] | 95.7%
CO/N=C(\CCC(=O)Nc1ccon1)c1ccc(Cl)c(Cl)c1 [4-(3,4-Dichloro-phenyl)-N-isoxazol-3-yl-4-methoxyimino-butyramide] | 101%
CCNC(=O)CC/C(=N\OC)c1ccc(Cl)c(Cl)c1 [4-(3,4-Dichloro-phenyl)-N-ethyl-4-methoxyimino-butyramide] | 98.9%
CON=C(CCC(=O)O)c1cccc(Cl)c1 [4-(3-Chloro-phenyl)-4-methoxyimino-butyric acid] | 101%
CO/N=C(\CCC(=O)OC1CCC1)c1ccc(Cl)c(Cl)c1 [4-(3,4-Dichloro-phenyl)-4-methoxyimino-butyric acid cyclobutyl ester] | 102%
CON=C(CCC(=O)NCc1cccnc1)c1ccc(Cl)c(Cl)c1 [4-(3,4-Dichloro-phenyl)-4-methoxyimino-N-pyridin-3-ylmethyl-butyramide] | 77.1%
CO/N=C(\CCC(=O)Nc1ccccn1)c1ccc(Cl)c(Cl)c1 [4-(3,4-Dichloro-phenyl)-4-methoxyimino-N-pyridin-2-yl-butyramide] | 104%
CON=C(CCC(=O)Nc1cncc(C)c1)c1ccc(Cl)c(Cl)c1 [4-(3,4-Dichloro-phenyl)-4-methoxyimino-N-(5-methyl-pyridin-3-yl)-butyramide] | 102%
CON=C(CCC(=O)N(C)OC)c1ccc(Cl)c(Cl)c1 [4-(3,4-Dichloro-phenyl)-N-methoxy-4-methoxyimino-N-methyl-butyramide] | 102%
CON=C(CCC(=O)Nc1ccc(C)nc1C)c1ccc(Cl)c(Cl)c1 [4-(3,4-Dichloro-phenyl)-N-(2,6-dimethyl-pyridin-3-yl)-4-methoxyimino-butyramide] | 93%
O=C(O)CC/C(=N\OCC1CC1)c1ccc(Cl)c(Cl)c1 [4-Cyclopropylmethoxyimino-4-(3,4-dichloro-phenyl)-butyric acid] | 99.6%

Now from value to compound:

inhibition at 10 µM | SMILES
90.2% | CON=C(CCC(=O)Nc1ccc(C)nn1)c1ccc(Cl)c(Cl)c1 [4-(3,4-Dichloro-phenyl)-4-methoxyimino-N-(6-methyl-pyridazin-3-yl)-butyramide]
94.3% | CO/N=C(\CCC(=O)NC(C)C)c1ccc(Cl)c(Cl)c1 [4-(3,4-Dichloro-phenyl)-N-isopropyl-4-methoxyimino-butyramide]
93.9% | CON=C(CCC(=O)Nc1cnccc1C)c1ccc(Cl)c(Cl)c1 [4-(3,4-Dichloro-phenyl)-4-methoxyimino-N-(4-methyl-pyridin-3-yl)-butyramide]
62.5% | CON=C(CCC(=O)N(C)c1cccnc1)c1ccc(Cl)c(Cl)c1 [4-(3,4-Dichloro-phenyl)-4-methoxyimino-N-methyl-N-pyridin-3-yl-butyramide]
102% | CO/N=C(\CCC(=O)OC1CCOCC1)c1ccc(Cl)c(Cl)c1 [4-(3,4-Dichloro-phenyl)-4-methoxyimino-butyric acid tetrahydro-pyran-4-yl ester]
68% | CON=C(CCC(=O)NCCN(C)C)c1ccc(Cl)c(Cl)c1 [{2-[4-(3,4-Dichloro-phenyl)-4-methoxyimino-butyrylamino]-ethyl}-dimethyl-ammonium trifluoroacetate]
61.9% | O=C(O)CC/C(=N\OCc1ccccc1)c1ccc(Cl)c(Cl)c1 [4-Benzyloxyimino-4-(3,4-dichloro-phenyl)-butyric acid]
